Assay results as given in article PMC10480161, “Identification of potent and selective N-myristoyltransferase inhibitors of Plasmodium vivax liver stage hypnozoites and schizonts” (Nature Communications, 2023).
Where “and” joins values, the source holds several entries; their conditions need not be identical. Identical values can stand only once. Like-named read-outs stand apart in the source and are kept apart here.

Tests used:
[1] = target: T1, HsNMT1 (Homo sapiens, UniProt P30419); assay: NMT activity assay (CPM detection of free CoA), HsNMT
T1 sequence (P30419 1-496): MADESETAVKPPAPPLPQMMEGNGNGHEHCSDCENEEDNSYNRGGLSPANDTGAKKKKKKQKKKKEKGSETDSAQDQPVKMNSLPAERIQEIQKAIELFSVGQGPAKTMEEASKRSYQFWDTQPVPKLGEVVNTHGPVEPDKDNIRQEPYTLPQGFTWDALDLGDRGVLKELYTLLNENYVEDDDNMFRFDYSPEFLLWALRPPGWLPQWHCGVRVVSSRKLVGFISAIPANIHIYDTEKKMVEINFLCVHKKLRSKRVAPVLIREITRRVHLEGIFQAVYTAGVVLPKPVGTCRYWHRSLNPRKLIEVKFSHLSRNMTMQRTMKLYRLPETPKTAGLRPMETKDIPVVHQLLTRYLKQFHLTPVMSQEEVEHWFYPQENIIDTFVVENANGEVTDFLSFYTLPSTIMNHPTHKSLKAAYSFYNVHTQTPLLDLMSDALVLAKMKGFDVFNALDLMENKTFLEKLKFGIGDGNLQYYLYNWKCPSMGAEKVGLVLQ

[2] = system: P. vivax schizonts; assay: P. vivax liver stage assay, schizonts; type: cell-based, Plasmodium vivax; conditions: for Number of liverstage Schizonts per well: 20 µM, 8 dpi; for IC50: primary human hepatocytes, treatment day 5 to 8 post-infection, isolates 2 and 3
Method in brief: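 Compound exposure ran days 5–8 post-infection with daily refeeding, dose-response up to 20 µM, MMV390048 at 20 µM as positive control. Host cells were single-lot primary human hepatocytes infected with freshly dissected P. vivax sporozoites; fixed cultures stained with anti-PvUIS4 and DAPI, schizonts quantified by confocal microscopy.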

[3] = system: primary human hepatocytes; assay: Nuclear counts (DAPI) in P. vivax-infected primary hepatocytes as measure of toxicity; type: cell-based; conditions: two technical replicates
Method in brief: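 Toxicity readout: DAPI nuclear counts normalized to DMSO wells, from confocal images of fixed P. vivax-infected single-donor primary human hepatocytes. Compounds, up to 20 µM, were applied daily from day 5 until day 8 post-infection; two technical replicates.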

[4] = system: P. vivax hypnozoites; assay: P. vivax liver stage assay, hypnozoites; type: cell-based, Plasmodium vivax; conditions: for Hypnozoites per well: Isolate 2, replicate wells (Figure 6d); for Number of liverstage hypnozoites per well: 20 µM, 8 dpi; for IC50: primary human hepatocytes, treatment day 5 to 8 post-infection, isolate 2
Method in brief: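 Hypnozoite read-out by confocal imaging of PvUIS4/DAPI-stained cultures at day 8 post-infection. Compound was replaced daily starting day 5 in P. vivax-infected single-donor primary human hepatocytes. Positive control: Pi4K inhibitor MMV390048, 20 µM.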

[5] = target: PvNMT (Plasmodium vivax, UniProt A5K1A2); assay: NMT activity assay (CPM detection of free CoA), PvNMT; conditions: for SI: enzyme selectivity, HsNMT IC50/PvNMT IC50
Chain of PvNMT (A5K1A2 entry or part of it): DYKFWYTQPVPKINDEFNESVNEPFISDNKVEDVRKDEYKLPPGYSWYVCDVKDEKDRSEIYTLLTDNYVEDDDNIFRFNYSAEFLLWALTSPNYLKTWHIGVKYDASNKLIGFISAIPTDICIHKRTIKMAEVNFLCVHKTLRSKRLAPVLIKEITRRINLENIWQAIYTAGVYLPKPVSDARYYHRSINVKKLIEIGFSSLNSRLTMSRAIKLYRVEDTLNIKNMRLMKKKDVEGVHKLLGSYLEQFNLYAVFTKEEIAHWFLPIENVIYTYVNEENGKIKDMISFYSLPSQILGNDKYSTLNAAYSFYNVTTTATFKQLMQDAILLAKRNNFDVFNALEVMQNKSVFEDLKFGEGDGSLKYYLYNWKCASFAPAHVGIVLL

[6] = isolate 1, technical replicates (Fig. 5b)
[7] = isolate 2, technical replicates (Fig. 5b)
[8] = isolate 3, technical replicates (Fig. 5b)
[9] = Plasmodium vivax, Hepatocyte, 120 h
[10] = isolate 1, technical replicates (Fig. 6C)
[11] = isolate 2, technical replicates (Fig. 6C)
[12] = isolate 3, technical replicates (Fig. 6C)

SMILES | Number of liverstage Schizonts per well [2, 6] | Number of liverstage Schizonts per well [2, 7] | Number of liverstage Schizonts per well [2, 8] | Schizonts per well ([2]; Isolate 2, 1.25 uM) | Schizonts per well ([2]; Isolate 2, 2.5 uM) | Schizonts per well ([2]; Isolate 2, 5 uM) | Schizonts per well ([2]; Isolate 3, 1.25 uM) | Schizonts per well ([2]; Isolate 3, 2.5 uM) | Schizonts per well ([2]; Isolate 3, 5 uM) | schizonts (fold change to DMSO) mean diff ([2]; isolate 1, 20 µM) | schizonts (fold change to DMSO) mean diff ([2]; isolate 2, 20 µM) | schizonts (fold change to DMSO) mean diff ([2]; isolate 3, 20 µM) | Nucleus counts per well ([3]; 1 uM) | Nucleus counts per well ([3]; 2.5uM) | Nucleus counts per well ([3]; 5 uM) | Nucleus counts per well ([3]; 10uM) | Nucleus counts per well ([3]; 20uM, P. vivax-infected wells) | Hypnozoites per well ([4]; 1.25 uM) | Hypnozoites per well ([4]; 2.5 uM) | Hypnozoites per well ([4]; 5 uM) | also measured
Cc1n[nH]c(C)c1CCOc1cc(F)ccc1-c1cccc(OCCN(C)C)c1 [Compound 26i] | 2 per well (2×) and 0 per well | 2 per well (2×) and 4 per well | 3 per well and 2 per well | 14 per well and 13 per well | 14 per well and 11 per well and 12 per well | 10 per well and 9 per well and 7 per well | 12 per well and 13 per well | 10 per well and 9 per well | 8 per well and 9 per well | 0.933 | 0.8491 | 0.8295 | 15030 per well and 14960 per well | 13600 per well and 14280 per well | 12980 per well and 13510 per well | 14570 per well and 13510 per well | 12860 per well and 13500 per well | 10 and 7 and 12 | 7 and 9 and 14 | 10 and 7 and 12 | IC50 [1]: 13.9 µM; Schizonts per well ([2]; Isolate 2, 20 uM (Fig. 5c-d)): 2 per well and 4 per well; Schizonts per well ([2]; Isolate 3, 20 uM (Fig. 5c-d)): 3 per well and 2 per well; IC50 [2, 9]: 3.3 to 5.2 µM; Hypnozoites per well ([4]; 10 uM): 8 and 12 and 14; Number of liverstage hypnozoites per well [4, 10]: 8 per well and 6 per well (2×); Number of liverstage hypnozoites per well [4, 11]: 8 per well and 6 per well (2×); Number of liverstage hypnozoites per well [4, 12]: 0 per well; Hypnozoites per well ([4]; 20 uM): 8 and 6 (2×); IC50 [4, 9]: 11 µM; hypnozoites (fold change to DMSO) mean diff ([4]; isolate 1, 20 µM): 1.000; hypnozoites (fold change to DMSO) mean diff ([4]; isolate 2, 20 µM): 0.310; IC50 ([5]; PvNMT IC50, mean of two or more determinations): 0.242 µM; SI [5]: 57
Cc1nn(C)c(C)c1CCOc1ccc2ccccc2c1-c1ccnc(N2CCNCC2)c1 [Compound 30a] | 0 per well | 2 per well (2×) and 0 per well | 4 per well and 0 per well | 10 per well and 11 per well and 19 per well | 11 per well and 12 per well and 16 per well | 6 per well and 8 per well and 11 per well | 13 per well and 11 per well | 7 per well and 6 per well | 8 per well and 4 per well | 1.000 | 0.9245 | 0.8636 | 15050 per well and 16480 per well | 16520 per well and 15260 per well | 14210 per well and 14260 per well | 14230 per well and 14010 per well | 13060 per well and 13510 per well | 6 and 9 and 13 | 5 and 0 and 3 | 2 (2×) and 0 | IC50 ([1]; read-out: HsNMT IC50, mean of two or more determinations): 24 µM; Schizonts per well ([2]; Isolate 2, 10 uM): 4 per well and 7 per well and 8 per well; Schizonts per well ([2]; Isolate 3, 10 uM): 5 per well and 7 per well; IC50 [2]: 2.9 to 4.3 µM; Hypnozoites per well ([4]; 10 uM): 1 and 0 and 2; Number of liverstage hypnozoites per well [4, 10]: 0 per well; Number of liverstage hypnozoites per well [4, 11]: 0 per well; Number of liverstage hypnozoites per well [4, 12]: 0 per well; Hypnozoites per well ([4]; 20 uM): 0; hypnozoites (fold change to DMSO) mean diff ([4]; isolate 1, 20 µM): 0.954; hypnozoites (fold change to DMSO) mean diff ([4]; isolate 2, 20 µM): 1.000; IC50 [4]: 2.1 µM; SI [5]: 269.8; IC50 ([5]; read-out: PvNMT IC50, mean of two or more determinations): 0.089 µM
